Source: patent publication US20090117593A1, “T. Cruzi-derived neurotrophic agents and methods of use therefor” (Tufts University, priority 2006, published 2009)
Entries after “also recorded” stand apart in the source; their conditions may differ.

Assays:
IL-6 [1] = assay: IL-6 secretion by PBMC (ELISA); type: cell-based, human; settings: 24 hours
Experimental: (§1) Primary cultures of human intestinal microvascular endothelial cells (HIMEC) isolated from normal jejunal mucosa/submucosal tissue were prepared as described (Strong et al., Gastroenterology 114:1244-1256 (1998)). The HIMEC were cultured in fibronectin-coated plasticware in MCDB medium (Sigma) supplemented with 20% FBS, 90 μg/ml heparin and 50 μg/ml endothelial cell growth factor (Sigma). T-24 cells (ATCC Accession No. HTB-4) were cultured in M199 medium supplemented with 10% FBS. PBMC were purified by Ficoll-Paque gradient as described (Current Protocols in Immunology, pp 7.1.1-7.1.2). Vero cells (ATCC Accession No. CCL-81) were grown in RPMI medium with 5% Nu serum and infected with the Silvio X-10/4 of T. cruzi as described previously (Chuenkova et al., J. Exp. Med. 181:1693-1703 (1995)).
Endothelial cells and T-24 cells were plated on 24-well plates at a density of 1×10^3 cells/well, while peripheral blood mononuclear cells (PBMC) were plated in the similar wells at 1×10^6/well. Triplicat cultures of cells were incubated test agents for a predetermined amount of time. […] Cytokines and chemokines released in the culture supernatants were measured by ELISA assay following the instructions of the manufacturer (Endogen). The cytokines tested were IL-1β, IL-4, IL-8, […], IL-12, IFN-γ, TNF-α, and the chemokines RANTES and MCP-1. Negative controls were cells incubated in medium containing polymixin B at 10 μg/ml, and positive controls were cells incubated with bacterial LPS at the low ng/ml range (for PBMC or HIMEC) or in the μg/ml range for carcinoma T-24 cells. In some experiments, IL-1β or TNFα were used as positive control for cytokine release.
TR peptides (Table 2) were synthesized at the Tufts Synthesis Facility (Boston, Mass.). Each peptide was purified by HPLC, and the number of amino acids and molecular weight of each peptide verified by mass spectrometry. Peptides were dissolved in growth medium (10% FCS in RPMI) and added at various concentrations to 1×10^6 PBMC/well in 24-well plates. After 24 hours, IL-6 was assayed by ELISA in the conditioned supernatants.

[2] = tested on: PC12 cells or Schwann cells; assay: Inhibition of apoptosis of PC12 cells or Schwann cells by synthetic peptides; type: cell-based
PC12 cells [3] = assay: Protection of PC12 cells from apoptosis induced by trophic factor withdrawal (DAPI, TUNEL); type: cell-based; settings: serum-free RPMI-1640/0.2% BSA, 17 hours, DAPI or TUNEL
Text: PC12 cells were obtained from ATCC (Manassas, Va. (Accession No. CRL-1721)) and cultured on collagen-coated dishes in RPMI 1640 supplemented with 10% horse serum and 5% fetal bovine serum (Greene, L., and Tishler, A., Proc. Natl. Acad. Sci. USA, 73:2424-2428 (1976)). For differentiation and survival experiments, cells were washed three times in serum-free RPMI/0.2% BSA, plated in the same medium in collagen-coated plastic dishes at 2×10^5/ml, without and with growth factors, TS, recombinant proteins, synthetic peptides, for the time and concentrations indicated in the Figures.
Cell staining with 4,6-diamino-2-phenylindole (DAPI). Cells were fixed with 4% formaldehyde in PBS for 5 minutes, washed with PBS, stained with 10 μg/ml DAPI (Sigma) for 2 minutes, washed with PBS, and visualized under UV light using a fluorescent microscope. About 300-400 cells were examined under the microscope to determine the percentage of apoptotic cells.
Cell DNA nick end labeling (TUNEL) (Gavrieli, Y. et al., J. Cell. Biol., 119:493-501 (1992)) assay was performed using a kit purchased from Boehringer Mannheim as described by the manufacturer.
Protection against apoptosis of PC12 cells in serum-free medium containing a test agent (agent N) (e.g., protection induced by TS, TS fragments, NGF or other growth factors), was calculated by the formula: 100%−[(apoptosis(%) of cells kept in RPMI containing test agent N÷apoptosis (%) of cells kept in RPMI)×100%]. Testing the effect of Wortmannin (Sigma) and LY294002 (Sigma) in inhibiting the neuroprotection of TS was performed following the protocol described by others (Yao, R., and Cooper, G., Science, 267:2003-2006 (1995); D'Mello, et al., J. Neurosci., 17:1548-1560 (1997)). In brief, PC12 cells were switched from growth medium to RPMI without and with TS or various other growth factors. After 24 hours, Wortmannin and LY294002 were added to the cultures. After another 24 hours, cells were examined for apoptosis by the DAPI assay, as above.

PC12 cells [4] = type: cell-based; settings: serum-free RPMI/0.2% BSA, collagen coated dishes, 16-17 hours
IL-6 [5] = assay: IL-6 secretion by normal human neutrophils; type: cell-based
IL-6 [6] = assay: IL-6 secretion by HIMEC (ELISA); type: cell-based, human; settings: 24 hours
Experimental: as §1
Endothelial cells and T-24 cells were plated on 24-well plates at a density of 1×10^3 cells/well, while peripheral blood mononuclear cells (PBMC) were plated in the similar wells at 1×10^6/well. Triplicat cultures of cells were incubated test agents for a predetermined amount of time. […] Cytokines and chemokines released in the culture supernatants were measured by ELISA assay following the instructions of the manufacturer (Endogen). The cytokines tested were IL-1β, IL-4, IL-8, IL-1, IL-12, IFN-γ, TNF-α, and the chemokines RANTES and MCP-1. […]

PC12^TrkA cells = assay: Survival of PC12^TrkA cells in serum-free medium (MTT, DAPI); type: cell-based; settings: peptides 10 μM, PDNF 500 ng/ml, NGF 30 ng/ml, 48 hours to 5 days
Experimental: PC12^nnr5 and PC12^TrkA cells were grown in RPMI with 10% FCS and 5% horse serum as described earlier (Green et al., J. Cell Biol. 102:830-843 (1986); Chuenkova and Pereira, Mol. Biol. Cell 11: 1487-1498 (2000)). Two approaches were used to study neurite extension: 1) Plating cells (1×10^5 cells/ml) on plastic wells (LABTECH 16-well slides, Nalge Nunc International, Naperville, Ill.) coated with synthetic peptides (100 μg/ml water, 4° C., overnight) or rat tail collagen (1 mg/ml PBS, 4° C., overnight). 2) Adding peptides in solution to cells plated on uncoated substratum. Cells were grown in 1% FCS-containing RPMI for 72 hours, and reacted with 0.5 mg/ml MTT (3-[4,5-dimethylthiazol-2-yl]-2,5-diphenyltetrazolium bromide) (SIGMA, St. Louis, Mo.) in serum-free medium for 1 hour at 37° C. Light microscopy was used to visualize viable cells (i.e., containing reduced insoluble formazan) with or without extended neurites (>5 μm in length). Cell viability was also determined using the CELLTITER 96 assay (Promega, Madison, Wis.) as follows: Cells, plated at 2×10^5/ml, were treated with peptides in serum-free medium for different times and exposed to CELLTITER 96 Aqueous One Solution for 1 hour at 37° C. 2) Apoptotic cells were identified by staining with DAPI (250 ng/ml) (SIGMA) 48 hours after cells were exposed to serum-free medium with or without additives in solution, as described earlier (Chuenkova and Pereira, Mol. Biol. Cell 11:1487-1498 (2000)). […]

Erk1/2 = Erk1/2 phosphorylation in PC12 cells; type: cell-based; settings: 5 minutes; control peptides 10 μM
Experimental: Activation state of TrkA, Erk1/2 and Akt kinases and transcription factor CREB was analyzed by assessing phosphorylation by Western blot with appropriate phospho-specific antibodies. For this, cells were plated in complete medium at a density of 3×10^5 cells/ml overnight on 6-well plates (BECTON DICKINSON LABWARE, Franklin Lakes, N.J.). The medium was changed to serum-free medium and the cells cultured for an additional 24 hours to reduce background phosphorylation. […] Antibody reaction was visualized by horseradish peroxidase (HRP)-conjugated secondary antibody and enhanced chemiluminescence kit (ECL). Some blots were stripped in appropriate buffer (50 mM Tris HCl, pH 7.8, 2% SDS, 1% β-mercaptoethanol) at 50° C. for 60 minutes and re-probed with p42/44MAPK, Akt or CREB antibody to ensure equal loading of proteins. For immunoprecipitation experiments, cell lysates were pre-adsorbed on protein G-Sepharose for 1 hour at 4° C. and after brief centrifugation supernatants were incubated with anti-TrkA antibody for 24 hours at 4° C. with gentle rocking. Formed immunocomplexes were captured on protein G-Sepharose, eluted with SDS-PAGE sample buffer and analyzed by immunoblotting with antibody against phospho-TrkA receptor.

[7] = tested on: primary cultures of rat Schwann cells; settings: cited from earlier work

Substance	IL-6 secretion by PBMC (IL-6 [1])	effect of PI-3 kinase inhibitor LY294002 on the apoptosis suppressing effect of the peptide [2]	suppression of apoptosis of PC12 cells or Schwann cells [2]	neurite outgrowth in PC12 cells (PC12 cells [4])	further results
DSSAHGAPSTPA [peptide TR1]	less active	–	–	–	–
DSSAHGAPSTPADSSAHGTPSTPV [TR2]	less active	–	–	–	–
DSSAHGAPSTPADSSAHGTPSTPVDSSAHGTPSTPA [TR3]	less active	–	–	–	–
DSSAHGAPSTPADSSAHGTPSTPVDSSAHGTPSTPADSSAHSTPSTPA [TR4]	active in promoting IL-6 release	–	–	–	–
DSSAHGAPSTPADSSAHGTPSTPVDSSAHGTPSTPADSSAHSTPSTPADSSAHSTPSTPA [TR5]	active in promoting IL-6 release	–	–	–	–
GNASQNYWEDAYRC [CYN2]	–	inhibited by the PI-3 kinase inhibitor LY294002	suppressed apoptosis but was less active	–	–
QPLRRQRVVVVPLSPRLVLLAFCRQRLPLKRMGGSYRCVNASTAN [peptide C44]	–	inhibited by the PI-3 kinase inhibitor LY294002	potent suppressors of apoptosis	had direct neurotrophic activity; also recorded: induce dose dependent outgrowth of neurites	protection of PC12 cells from apoptosis induced by trophic factor withdrawal (PC12 cells [3]): protected PC12 cells from apoptosis
RQRLPKRMGGSYRC [peptide C14]	–	inhibited by the PI-3 kinase inhibitor LY294002	potent suppressors of apoptosis	had direct neurotrophic activity; also recorded: induce dose dependent outgrowth of neurites	protection of PC12 cells from apoptosis induced by trophic factor withdrawal (PC12 cells [3]): protected PC12 cells from apoptosis
RQRLPKRMGGSYRCVNASTAH [CFN1]	–	inhibited by the PI-3 kinase inhibitor LY294002	potent suppressors of apoptosis	had direct neurotrophic activity	–
TNF-α	–	–	–	–	IL-6 production by normal human neutrophils (IL-6 [5]): did elicit secretion of IL-6
VCNA: neuraminidase from Vibrio cholera [reference compound]	–	–	–	did not induce neurite outgrowth; also recorded: does not induce neurite outgrowth	IL-6 secretion by HIMEC (IL-6 [6]): did not stimulate detectable IL-6 secretion; protection of PC12 cells from apoptosis induced by trophic factor withdrawal (PC12 cells [3]): did not
VNASTAN [peptide CYFN]	–	inhibited by the PI-3 kinase inhibitor LY294002	did not inhibit apoptosis	–	survival of PC12^TrkA cells in serum-free medium (PC12^TrkA cells): did not significantly promoted cell survival; Erk1/2 phosphorylation in PC12 cells (Erk1/2): did not activate Erk
YSVDDGETWE [peptide B2]	–	–	did not inhibit apoptosis	did not induce neurite outgrowth; also recorded: did not promote neurite outgrowth	survival of PC12^TrkA cells in serum-free medium (PC12^TrkA cells; listed as BR): inactive; also recorded: did not significantly promoted cell survival
lysophosphatidic acid	–	–	–	–	dose reported to be active as Schwann cell survival factor [7]: ≥ 10 nM
